Laboratory results as given in patent EP0332216A1 (priority 1988, dated 1989).

Tests used:
bacteria = test: Anti-microbial activity in vitro (bacteria); type: cell-based; conditions: concentration of 500 µg/mℓ
yeast = test: Anti-microbial activity in vitro (yeast); type: cell-based; conditions: concentration of 500 µg/mℓ
Solubility to solvent = type: physicochemical
filamentous fungi = test: Anti-microbial activity in vitro (filamentous fungi); type: cell-based; conditions: concentration of 500 µg/mℓ
[1] = Acute toxicity in mice (intraperitoneal); conditions: mouse, in vivo, ip; JCL/ICR male mice, 5 weeks; administration into the peritoneal cavity; mortality after two weeks; read-out: LD₅₀

CC1=C(C(=O)O)COC1=O [F-0368]
anti-microbial activity in vitro (bacteria): did not indicate its anti-microbial activity
anti-microbial activity in vitro (yeast): did not indicate its anti-microbial activity
Solubility to Solvent (Solubility to solvent; acetone): Readily soluble
Solubility to Solvent (Solubility to solvent; benzene): Non-soluble
Solubility to Solvent (Solubility to solvent; chloroform): Non-soluble
Solubility to Solvent (Solubility to solvent; ethanol): Readily soluble
Solubility to Solvent (Solubility to solvent; ethyl acetate): Soluble
Solubility to Solvent (Solubility to solvent; hexane): Non-soluble
Solubility to Solvent (Solubility to solvent; methanol): Readily soluble
Solubility to Solvent (Solubility to solvent; water): Soluble
anti-microbial activity in vitro (filamentous fungi): did not indicate its anti-microbial activity
LD50 at 336 h [1]: ~200 mg/kg
